Measured values from publication PMC2873968, “Novel protein kinase D inhibitors cause potent arrest in prostate cancer cell growth and motility” (BMC Chemical Biology, 2010).

How the values were obtained:
[1] = system: DU145 cells; assay: Matrigel invasion assay; assay type: cell-based; details: 10 μM, 22 h
Procedure: DU145 cells (8.0 × 10^4 cells/ml) in RPMI containing 0.1% fetal bovine serum (FBS) were seeded into the top chamber of BioCoat control inserts (pore size 8 μm) or BioCoat Matrigel invasion inserts with Matrigel-coated filters (BD Pharmingen). To stimulate invasion, media in the lower chamber of the insert contained 20% FBS. […] After incubation, noninvasive cells were removed using a cotton swab, and invasive cells were fixed in 100% methanol and stained with 1% crystal violet. After staining, cells were counted under a microscope (200× magnification). The percentage invasion was determined by cell counts in 5 fields of the number of cells that invaded the Matrigel matrix relative to the number of cells that migrated through the control insert.
After 22 hours, noninvasive cells were removed and invasive cells were fixed in 100% methanol, stained in […] crystal violet solution, and photographed. The number of cells that invaded the Matrigel matrix was determined by cell counts in 5 fields relative to the number of cells that migrated through the control insert. The data shown is the mean ± S.E.M. of two independent experiments. Statistical significance versus the control DMSO was determined by unpaired t-test. ***, p < 0.001.

[2] = MTT cytotoxicity assay; details: human
Procedure: PC3 cells were seeded into 96-well plates (3000 cells/well) and allowed to attach overnight. Cells were then incubated in media containing 0.3-100 μM inhibitors for 72 h. 3-(4,5-Dimethylthiazol-2-yl)-2,5-diphenyltetrazolium bromide methyl thiazolyl tetrazolium (MTT) solution was prepared at 2 mg/ml concentration in PBS, sterilized by filtering through a 0.2 μm filter, and wrapped in foil to protect from light. 50 μl MTT solution was added to each well and incubated for 4 h at 37°C. Then, media was removed and 200 μl DMSO was added to each well. The plate was mixed for 5 min and the optical density was determined at 570 nm.
PC3 cells were seeded into 96-well plates (3000 cells/well) and were then incubated in media containing 0.3-100 μM inhibitors for 72 h. MTT solution was added to each well and incubated for 4 h. Optical density was read at 570 nm to determine cell viability. The EC50 was determined as the mean ± S.E.M. of three independent experiments for each compound.

[3] = molecular target: T1, PKD1 (Homo sapiens, UniProt Q15139); assay: In vitro radiometric PKD kinase assay; assay type: biochemical; set-up: purchased Biomol International; details: for IC50: radiometric kinase assay, mean ± S.E.M.; for fold greater selectivity toward PKD1: versus PKD2 and PKD3
T1 sequence (Q15139 1-912): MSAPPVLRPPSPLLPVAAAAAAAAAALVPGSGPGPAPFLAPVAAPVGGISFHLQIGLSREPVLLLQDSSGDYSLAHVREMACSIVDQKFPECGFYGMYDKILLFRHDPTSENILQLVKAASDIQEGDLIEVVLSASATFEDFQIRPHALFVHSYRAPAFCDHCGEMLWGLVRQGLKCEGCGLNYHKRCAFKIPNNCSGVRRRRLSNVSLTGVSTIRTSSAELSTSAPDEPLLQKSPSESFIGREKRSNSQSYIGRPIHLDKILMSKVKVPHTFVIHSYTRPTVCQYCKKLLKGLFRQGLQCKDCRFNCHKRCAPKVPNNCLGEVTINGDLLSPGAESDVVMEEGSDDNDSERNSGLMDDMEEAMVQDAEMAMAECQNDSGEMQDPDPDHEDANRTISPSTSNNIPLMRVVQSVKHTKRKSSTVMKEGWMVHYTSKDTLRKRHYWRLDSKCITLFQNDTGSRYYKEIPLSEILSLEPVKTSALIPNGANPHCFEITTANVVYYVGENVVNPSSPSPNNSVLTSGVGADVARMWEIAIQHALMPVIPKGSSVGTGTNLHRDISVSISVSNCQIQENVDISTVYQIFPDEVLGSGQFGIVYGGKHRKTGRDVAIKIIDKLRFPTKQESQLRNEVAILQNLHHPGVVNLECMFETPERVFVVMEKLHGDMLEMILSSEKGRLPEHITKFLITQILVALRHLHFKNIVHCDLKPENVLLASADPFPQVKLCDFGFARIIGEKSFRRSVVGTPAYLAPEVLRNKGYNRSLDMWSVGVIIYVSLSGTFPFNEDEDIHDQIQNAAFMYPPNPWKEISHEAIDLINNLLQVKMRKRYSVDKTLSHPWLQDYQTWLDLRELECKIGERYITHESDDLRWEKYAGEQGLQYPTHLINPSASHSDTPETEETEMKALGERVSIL
Procedure: In vitro radiometric kinase assays were conducted as previously described. Briefly, 1 μCi [γ-^32P] ATP (PerkinElmer Life Sciences), 70 μM ATP, 50 ng purified recombinant human PKD1 (Biomol International, Plymouth Meeting, PA), PKD2 (SignalChem, Richmond, BC, Canada), or CAMKIIα (Enzo Life Sciences) or 75 ng PKD3 (Enzo Life Sciences), and 2.5 μg syntide-2 (Sigma) in 50 μl kinase buffer containing 50 mM Tris-HCl, pH 7.5, 4 mM MgCl2, and 10 mM β-mercaptoethanol. For the CAMK assay, 0.5 mM CaCl2 and 30 ng/μl calmodulin were pre-incubated for 10 min on ice, and then added to each reaction mixture. The reaction was incubated at 30°C for 10 min, and 25 μl of the reaction mixture was then spotted onto Whatman P81 filter paper (Whatman Inc., Clifton, NJ). The filter papers were washed 3 times in 0.5% phosphoric acid, air-dried, and counted using a Beckman LS6500 multipurpose scintillation counter (Beckman).
The in vitro inhibitory activities of the novel compounds toward PKD were determined using radiometric PKD kinase activity assays. Recombinant human PKD1, -2, or -3 was incubated with the substrate, syntide-2, in the presence of 10 different concentrations of each compound. IC50 values were determined for each compound by plotting percent PKD activity versus compound concentration for each point.
A-E, inhibition of recombinant human PKD1 in vitro. […] A 10-point concentration curve was generated for each compound for IC50 determination. Each IC50 was determined as the mean ± S.E.M. of three independent experiments with triplicate determinations at each concentration in each experiment. Representative graphs are shown.

Compound | inhibition of invasion (in words) [1] | EC50 at 72 h ([2]; PC3 cells) | IC50 [3] | percent invasion [1] | fold greater inhibition of PKD1 than the parental compound CID755673 [3] | fold greater selectivity toward PKD1 [3] | EC50 at 72 h [2] | fold reduction of potency for PKD1 ([3]; versus kb-NB142-70)
O=C1NCCCc2c1oc1ccc(O)cc21 [CID755673, 7-Hydroxy-2,3,4,5-tetrahydro-[1]benzoxolo[2,3-c]azepin-1-one] | significantly inhibited invasion | 320 µM | 0.182 ± 0.027 µM |  |  |  |  | 
O=C1NCCSc2c1sc1ccc(O)cc21 [kb-NB142-70] |  | 8.03 µM | 0.0283 ± 0.0023 µM | 10% | 7 fold | about 2 fold |  | 
COc1ccc2sc3c(c2c1)SCCNC3=O [kb-NB165-09] |  | 50 µM | 0.0825 ± 0.0046 µM | 10% |  |  |  | 
O=C1NCCSc2c1sc1ccc(O)c(I)c21 [kb-NB165-31] | levels similar to the parental compound |  | 0.114 ± 0.0239 µM |  |  |  | 31.9 µM | 
O=C1NCCCSc2c1sc1ccc(O)cc21 [kb-NB165-92] | levels similar to the parental compound |  | 0.111 ± 0.006 µM |  |  |  | 78.3 µM | 2-4 fold
COc1ccc2sc3c(c2c1)SCCCNC3=O [kb-NB184-02] | levels similar to the parental compound |  | 0.193 ± 0.0274 µM |  |  | about 2 fold | 33.8 µM | 
